US8957062B2, “Substituted cyclopropyl compounds, compositions containing such compounds and methods of treatment” (Merck Sharp & Dohme Corp., priority 2011, dated 2015)

Target: T1, human GPR119 (Homo sapiens, UniProt Q8TDV5)
T1 sequence (Q8TDV5 1-308 limits assumed): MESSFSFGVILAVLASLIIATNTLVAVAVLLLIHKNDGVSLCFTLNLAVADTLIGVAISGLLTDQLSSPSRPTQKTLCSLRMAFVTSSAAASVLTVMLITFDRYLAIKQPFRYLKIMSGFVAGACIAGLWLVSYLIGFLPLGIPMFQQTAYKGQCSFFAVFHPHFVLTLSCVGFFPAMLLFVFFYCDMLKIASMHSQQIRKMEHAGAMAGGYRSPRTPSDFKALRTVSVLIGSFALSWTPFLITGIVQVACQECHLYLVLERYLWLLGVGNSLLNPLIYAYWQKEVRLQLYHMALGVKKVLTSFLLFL
Assay: Measurement of GPR119 signaling (cAMP assay) in cells stably transfected with human GPR119
Type: cell-based
Details: stated in the example text; cAMP stimulation, human GPR119; read-out: GPR119 Human EC50

Row | EC50 [nM] | SMILES
1 | 7 | COCc1noc(N2CCC([C@H]3C[C@H]3CCOc3ccc(S(C)(=O)=O)cn3)CC2)n1 [Example 208, 3-(methoxymethyl)-5-(4-((1R,2S)-2-(2-(5-(methylsulfonyl)pyridin-2-yloxy)ethyl)cyclopropyl)piperidin-1-yl)-1,2,4-oxadiazole]
2 | 9.2 | CCc1nc(N2CCC([C@H]3C[C@H]3CCOc3ccc(S(C)(=O)=O)cn3)CC2)no1 [Example 233, 2-(2-{(1S,2R)-2-[1-(5-ethyl-1,2,4-oxidiazol-5-yl)piperidin-4-yl]cyclopropyl}ethoxy)-5-(methylsulfonyl)pyridine]
3 | 28 | CCCCc1nnc(N2CCC([C@H]3C[C@H]3CCOc3ccc(S(C)(=O)=O)cn3)CC2)o1 [Example 247, 2-(2-{(1S,2R)-2-[1-(5-butyl-1,3,4-oxidiazol-2-yl)piperidin-4-yl]cyclopropyl}ethoxy)-5-(methylsulfonyl)pyridine]
4 | 6 | O=C(c1c(F)cc(OCC[C@@H]2C[C@@H]2C2CCN(c3nc4ncccn4n3)CC2)cc1F)C1CC1 [Example 251]
5 | 1.6 | CC(C)c1nc(N2CCC([C@H]3C[C@H]3CCOc3ccc(CC(=O)N4CC(O)C4)c(F)c3)CC2)no1 [Example 255, 1-[(2-fluoro-4-{2-[(1S,2R)-2-{1-(5-isopropyl-1,2,4-oxadiazol-3-yl)piperidin-4-yl}cyclopropyl]ethoxy}phenyl)acetyl]azetidin-3-ol]
6 | 2.5 | CC(C)c1noc(N2CCC([C@H]3C[C@H]3CCOc3ccc(Cc4nnco4)c(F)c3)CC2)n1 [Example 256, 4-((1R,2S)-2-{2-[3-fluoro-4-(1,3,4-oxadiazol-2-ylmethyl)phenoxy]ethyl}cyclopropyl)-1-(3-isopropyl-1,2,4-oxadiazol-5-yl)piperidine]
7 | 8 | Cc1cc(CC(=O)N2CC(F)C2)cnc1OCC[C@@H]1C[C@@H]1C1CCN(c2nc(C(C)C)no2)CC1 [Example 258, 5-[2-(3-fluoroazetidin-1-yl)-2-oxoethyl]-2-(2-{(1S,2R)-2-[1-(3-isopropyl-1,2,4-oxadiazol-5-yl)piperidin-4-yl]cyclopropyl}ethoxy)-3-methylpyridine]

Same assay, conditions: table column; cAMP stimulation, human GPR119; read-out: GPR119 Human EC50

Row | EC50 [nM] | SMILES
8 | 0.9 | COC(C)c1noc(N2CCC([C@H]3C[C@H]3CCOc3ncc(-n4cnnn4)cc3C)CC2)n1 (stereo partly shown) [Example 227]
9 | 2 | COCCc1noc(N2CCC([C@H]3C[C@H]3CCOc3ncc(-n4cnnn4)cc3C)CC2)n1 [Example 228]
10 | 5 | Cc1cc(-n2cnnn2)cnc1OCC[C@@H]1C[C@@H]1C1CCN(c2nc(C(C)O)no2)CC1 (stereo partly shown) [Example 229]
11 | 1.6 | COCc1noc(N2CCC([C@H]3C[C@H]3CCOc3ccc(-n4cnnn4)cn3)CC2)n1 [Example 230]
12 | 0.4 | CC(C)c1noc(N2CCC([C@H]3C[C@H]3CCOc3ccc(-n4cnnn4)cn3)CC2)n1 [Example 231]
13 | 10.6 | COCCc1noc(N2CCC([C@H]3C[C@H]3CCOc3ccc(-n4cnnn4)cn3)CC2)n1 [Example 232]
14 | 3.5 | CC(C)c1nc(N2CCC([C@H]3C[C@H]3CCOc3ccc(S(C)(=O)=O)cn3)CC2)no1 [Example 234]
15 | 6.5 | CC(C)Cc1nc(N2CCC([C@H]3C[C@H]3CCOc3ccc(S(C)(=O)=O)cn3)CC2)no1 [Example 235]
16 | 1.7 | CC(C)(C)c1nc(N2CCC([C@H]3C[C@H]3CCOc3ccc(S(C)(=O)=O)cn3)CC2)no1 [Example 236]
17 | 18 | CS(=O)(=O)c1ccc(OCC[C@@H]2C[C@@H]2C2CCN(c3noc(CCC(F)(F)F)n3)CC2)nc1 [Example 237]
18 | 22 | CS(=O)(=O)c1ccc(OCC[C@@H]2C[C@@H]2C2CCN(c3noc(C4CC4)n3)CC2)nc1 [Example 238]
19 | 7 | CC1CC1c1nc(N2CCC([C@H]3C[C@H]3CCOc3ccc(S(C)(=O)=O)cn3)CC2)no1 (stereo partly shown) [Example 239]
20 | 5.2 | CC1(c2nc(N3CCC([C@H]4C[C@H]4CCOc4ccc(S(C)(=O)=O)cn4)CC3)no2)CC1 [Example 240]
21 | 4 | CS(=O)(=O)c1ccc(OCC[C@@H]2C[C@@H]2C2CCN(c3noc(C4CCC4)n3)CC2)nc1 [Example 241]
22 | 11.6 | CS(=O)(=O)c1ccc(OCC[C@@H]2C[C@@H]2C2CCN(c3noc(C4CCCC4)n3)CC2)nc1 [Example 242]
23 | 9.8 | CS(=O)(=O)c1ccc(OCC[C@@H]2C[C@@H]2C2CCN(c3noc(CC4CC4)n3)CC2)nc1 [Example 243]

Row | EC50 [nM] | SMILES
24 | 2.1 | CS(=O)(=O)c1ccc(OCC[C@@H]2C[C@@H]2C2CCN(c3noc(C4(C(F)(F)F)CC4)n3)CC2)nc1 [Example 244]
25 | 8.1 | COCc1nc(N2CCC([C@H]3C[C@H]3CCOc3ccc(S(C)(=O)=O)cn3)CC2)no1 [Example 245]
26 | 7.9 | CCOCc1nc(N2CCC([C@H]3C[C@H]3CCOc3ccc(S(C)(=O)=O)cn3)CC2)no1 [Example 246]
27 | 39 | CS(=O)(=O)c1ccc(OCC[C@@H]2C[C@@H]2C2CCN(c3nnc(C4CCC4)o3)CC2)nc1 [Example 248]
28 | 32 | CS(=O)(=O)c1ccc(OCC[C@@H]2C[C@@H]2C2CCN(c3nnc(C4CCCC4)o3)CC2)nc1 [Example 249]
29 | 49 | CS(=O)(=O)c1ccc(OCC[C@@H]2C[C@@H]2C2CCN(c3nnc(-c4ccccc4)o3)CC2)nc1 [Example 250]
30 | 4.1 | O=C(c1c(F)cc(OCC[C@@H]2C[C@@H]2C2CCN(c3nc4cnccn4n3)CC2)cc1F)C1CC1 [Example 252]
31 | 3 | O=C(c1c(F)cc(OCC[C@@H]2C[C@@H]2C2CCN(c3nnc4ncccn34)CC2)cc1F)C1CC1 [Example 253]
32 | 25 | Cc1nc(C#N)cc(OCC[C@@H]2C[C@@H]2C2CCN(c3nnc4ncccn34)CC2)n1 [Example 254]
33 | 1.4 | CC(C)c1noc(N2CCC([C@H]3C[C@H]3CCOc3ccc(Cc4nncs4)c(F)c3)CC2)n1 [Example 257]
34 | 18 | Cc1cc(CC(=O)N2CCC(C)CC2)cnc1OCC[C@@H]1C[C@@H]1C1CCN(c2nc(C(C)C)no2)CC1 [Example 259]
35 | 3.8 | Cc1cc(CC(=O)N2CC(F)(F)C2)cnc1OCC[C@@H]1C[C@@H]1C1CCN(c2nc(C(C)C)no2)CC1 [Example 260]
36 | 19 | COC1CN(C(=O)Cc2cnc(OCC[C@@H]3C[C@@H]3C3CCN(c4nc(C(C)C)no4)CC3)c(C)c2)C1 [Example 261]
37 | 12 | Cc1cc(CC(=O)N2CC(C)(O)C2)cnc1OCC[C@@H]1C[C@@H]1C1CCN(c2nc(C(C)C)no2)CC1 [Example 262]
38 | 14 | Cc1cc(CC(=O)N(C)C)cnc1OCC[C@@H]1C[C@@H]1C1CCN(c2nc(C(C)C)no2)CC1 [Example 263]
39 | 11 | Cc1cc(CC(=O)N(C)C2CCS(=O)(=O)C2)cnc1OCC[C@@H]1C[C@@H]1C1CCN(c2nc(C(C)C)no2)CC1 (stereo partly shown) [Example 264]

Tested on: not given
Assay: not given
Details: not given

Row | melting point [°C] | SMILES
40 | 68 to 70 | COCc1noc(N2CCC([C@H]3C[C@H]3CCOc3ccc(S(C)(=O)=O)cn3)CC2)n1 [Example 208, 3-(methoxymethyl)-5-(4-((1R,2S)-2-(2-(5-(methylsulfonyl)pyridin-2-yloxy)ethyl)cyclopropyl)piperidin-1-yl)-1,2,4-oxadiazole]
